Reference: paper PMC9719519, “Non-classical ferroptosis inhibition by a small molecule targeting PHB2” (Nature Communications, 2022)

Experiments:
prohibitin 2 (PHB2) = prohibitin 2 (PHB2) (Homo sapiens, UniProt Q99623); experiment: SPR on purified recombinant PHB2 […]-194; DSF shift […] °C; DARTS in cells; assay type: binding; design: PHB2 1–194 (6× His tag)
IRE1(h) = target: T1, IRE1(h) (Homo sapiens, UniProt O75460); experiment: biochemical; design: Eurofins recombinant human kinase profiling, remaining kinase activity as % of control, 10 uM ATP; conditions: ATP 10 uM; read-out: %Ctrl@10 μM
T1 construct: gene ERN1
Procedure, shortened: (§1)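 Activity measured in a commercial panel of 401 recombinant human protein kinases run as a kinase profiling service.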

PDGFRα(V561D)(h) = target: T2, PDGFRα(V561D)(h) (Homo sapiens, UniProt P16234, V561D); experiment: biochemical; design: Eurofins recombinant human kinase profiling, remaining kinase activity as % of control, 10 uM ATP; conditions: ATP 10 uM; read-out: %Ctrl@10 μM
T2 construct: gene PDGFRA
Procedure, shortened: as §1

PrKX(h) = PrKX(h) (Homo sapiens, UniProt P51817); experiment: biochemical; design: Eurofins recombinant human kinase profiling, remaining kinase activity as % of control, 10 uM ATP; conditions: ATP 10 uM; read-out: %Ctrl@10 μM
Procedure, shortened: as §1

Abl(h) = target: T3, Abl(h) (Homo sapiens, UniProt P00519); experiment: biochemical; design: Eurofins recombinant human kinase profiling, remaining kinase activity as % of control, 10 uM ATP; conditions: ATP 10 uM; read-out: %Ctrl@10 μM
T3 construct: gene ABL1
Procedure, shortened: as §1

PDGFRα(D842V)(h) = target: T4, PDGFRα(D842V)(h) (Homo sapiens, UniProt P16234, D842V); experiment: biochemical; design: Eurofins recombinant human kinase profiling, remaining kinase activity as % of control, 10 uM ATP; conditions: ATP 10 uM; read-out: %Ctrl@10 μM
T4 construct: gene PDGFRA
Procedure, shortened: as §1

IGF-1R(h), activated = target: T5, IGF-1R(h), activated (Homo sapiens, UniProt P08069); experiment: biochemical; design: Eurofins recombinant human kinase profiling, remaining kinase activity as % of control, 10 uM ATP; conditions: ATP 10 uM; read-out: %Ctrl@10 μM
T5 construct: gene IGF1R
T5 sequence (P08069 whole entry): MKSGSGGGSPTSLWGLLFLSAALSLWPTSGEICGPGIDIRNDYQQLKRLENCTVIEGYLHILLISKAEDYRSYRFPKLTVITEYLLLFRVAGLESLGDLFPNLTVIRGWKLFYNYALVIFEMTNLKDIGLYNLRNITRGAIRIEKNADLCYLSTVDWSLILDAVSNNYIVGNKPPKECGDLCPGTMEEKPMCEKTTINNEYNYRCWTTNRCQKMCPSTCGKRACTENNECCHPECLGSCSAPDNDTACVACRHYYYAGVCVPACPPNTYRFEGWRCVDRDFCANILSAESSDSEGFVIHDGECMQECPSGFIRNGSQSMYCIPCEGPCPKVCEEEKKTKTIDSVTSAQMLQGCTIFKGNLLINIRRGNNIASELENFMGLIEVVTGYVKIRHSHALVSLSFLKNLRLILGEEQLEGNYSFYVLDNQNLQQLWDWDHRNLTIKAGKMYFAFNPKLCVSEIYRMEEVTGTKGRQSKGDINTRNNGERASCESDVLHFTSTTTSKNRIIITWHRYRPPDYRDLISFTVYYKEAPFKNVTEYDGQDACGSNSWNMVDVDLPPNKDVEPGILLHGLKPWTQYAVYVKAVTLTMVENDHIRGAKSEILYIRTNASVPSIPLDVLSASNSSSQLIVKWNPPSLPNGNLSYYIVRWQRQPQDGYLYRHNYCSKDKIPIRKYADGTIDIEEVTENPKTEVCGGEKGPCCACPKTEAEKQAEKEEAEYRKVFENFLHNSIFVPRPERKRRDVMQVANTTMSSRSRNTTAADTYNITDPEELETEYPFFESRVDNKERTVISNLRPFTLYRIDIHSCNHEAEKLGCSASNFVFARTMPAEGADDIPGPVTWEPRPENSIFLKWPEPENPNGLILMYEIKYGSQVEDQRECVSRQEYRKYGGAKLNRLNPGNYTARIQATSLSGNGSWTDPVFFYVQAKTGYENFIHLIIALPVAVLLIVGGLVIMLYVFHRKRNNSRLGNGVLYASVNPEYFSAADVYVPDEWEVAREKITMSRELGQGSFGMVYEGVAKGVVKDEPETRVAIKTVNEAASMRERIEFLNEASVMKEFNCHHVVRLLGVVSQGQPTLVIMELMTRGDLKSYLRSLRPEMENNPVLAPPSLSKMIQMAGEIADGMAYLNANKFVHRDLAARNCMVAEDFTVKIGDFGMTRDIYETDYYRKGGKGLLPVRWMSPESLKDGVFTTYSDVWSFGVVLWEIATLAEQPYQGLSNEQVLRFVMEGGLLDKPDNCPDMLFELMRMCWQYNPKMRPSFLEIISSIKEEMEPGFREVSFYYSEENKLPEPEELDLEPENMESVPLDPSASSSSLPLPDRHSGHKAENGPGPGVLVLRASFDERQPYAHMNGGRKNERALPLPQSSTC
Procedure, shortened: as §1

GRK6(h) = GRK6(h) (Homo sapiens, UniProt P43250); experiment: biochemical; design: Eurofins recombinant human kinase profiling, remaining kinase activity as % of control, 10 uM ATP; conditions: ATP 10 uM; read-out: %Ctrl@10 μM
Procedure, shortened: as §1

ATM(h) = ATM(h) (Homo sapiens, UniProt Q13315); experiment: biochemical; design: Eurofins recombinant human kinase profiling, remaining kinase activity as % of control, 10 uM ATP; conditions: ATP 10 uM; read-out: %Ctrl@10 μM
Procedure, shortened: as §1

NEK4(h) = NEK4(h) (Homo sapiens, UniProt P51957); experiment: biochemical; design: Eurofins recombinant human kinase profiling, remaining kinase activity as % of control, 10 uM ATP; conditions: ATP 10 uM; read-out: %Ctrl@10 μM
Procedure, shortened: as §1

MARK1(h) = MARK1(h) (Homo sapiens, UniProt Q9P0L2); experiment: biochemical; design: Eurofins recombinant human kinase profiling, remaining kinase activity as % of control, 10 uM ATP; conditions: ATP 10 uM; read-out: %Ctrl@10 μM
Procedure, shortened: as §1

WNK3(h) = WNK3(h) (Homo sapiens, UniProt Q9BYP7); experiment: biochemical; design: Eurofins recombinant human kinase profiling, remaining kinase activity as % of control, 10 uM ATP; conditions: ATP 10 uM; read-out: %Ctrl@10 μM
Procedure, shortened: as §1

CDK17/cyclinY(h) = CDK17/cyclinY(h) (Homo sapiens, UniProt Q00537); experiment: biochemical; design: Eurofins recombinant human kinase profiling, remaining kinase activity as % of control, 10 uM ATP; conditions: ATP 10 uM; read-out: %Ctrl@10 μM
Procedure, shortened: as §1

IRR(h) = target: T6, IRR(h) (Homo sapiens, UniProt P14616); experiment: biochemical; design: Eurofins recombinant human kinase profiling, remaining kinase activity as % of control, 10 uM ATP; conditions: ATP 10 uM; read-out: %Ctrl@10 μM
T6 construct: gene INSRR
T6 sequence (P14616 whole entry): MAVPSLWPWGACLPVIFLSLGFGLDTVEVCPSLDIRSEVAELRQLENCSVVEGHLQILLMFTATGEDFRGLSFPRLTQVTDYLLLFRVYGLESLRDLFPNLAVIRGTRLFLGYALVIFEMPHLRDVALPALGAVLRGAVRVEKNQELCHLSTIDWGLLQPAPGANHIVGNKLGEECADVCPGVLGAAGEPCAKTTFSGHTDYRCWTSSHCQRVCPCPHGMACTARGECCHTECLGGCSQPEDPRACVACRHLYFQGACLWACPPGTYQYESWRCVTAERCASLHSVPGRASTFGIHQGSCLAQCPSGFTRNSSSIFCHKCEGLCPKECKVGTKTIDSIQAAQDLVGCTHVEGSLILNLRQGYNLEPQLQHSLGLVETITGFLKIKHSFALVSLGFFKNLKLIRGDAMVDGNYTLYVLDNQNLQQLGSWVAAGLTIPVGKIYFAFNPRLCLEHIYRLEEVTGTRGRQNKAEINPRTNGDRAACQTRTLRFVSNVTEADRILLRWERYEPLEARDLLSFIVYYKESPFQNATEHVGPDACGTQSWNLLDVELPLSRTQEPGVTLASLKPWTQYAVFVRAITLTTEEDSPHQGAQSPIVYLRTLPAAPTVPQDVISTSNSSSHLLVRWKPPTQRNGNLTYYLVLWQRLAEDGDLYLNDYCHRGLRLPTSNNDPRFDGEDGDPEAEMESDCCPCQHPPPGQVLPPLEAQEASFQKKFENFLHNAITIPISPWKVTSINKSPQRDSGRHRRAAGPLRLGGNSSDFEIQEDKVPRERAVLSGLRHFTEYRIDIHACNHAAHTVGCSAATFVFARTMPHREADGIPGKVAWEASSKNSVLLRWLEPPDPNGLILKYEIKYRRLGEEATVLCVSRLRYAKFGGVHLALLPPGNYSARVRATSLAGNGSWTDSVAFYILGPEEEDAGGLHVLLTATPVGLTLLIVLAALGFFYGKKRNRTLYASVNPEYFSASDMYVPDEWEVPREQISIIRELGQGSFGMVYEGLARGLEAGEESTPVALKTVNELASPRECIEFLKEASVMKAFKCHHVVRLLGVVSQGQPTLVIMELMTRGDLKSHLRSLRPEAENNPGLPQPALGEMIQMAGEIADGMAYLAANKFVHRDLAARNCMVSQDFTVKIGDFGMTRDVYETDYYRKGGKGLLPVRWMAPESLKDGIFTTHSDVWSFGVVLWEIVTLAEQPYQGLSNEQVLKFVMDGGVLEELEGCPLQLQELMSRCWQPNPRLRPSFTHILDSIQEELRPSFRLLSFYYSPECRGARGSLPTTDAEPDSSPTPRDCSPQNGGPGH
Procedure, shortened: as §1

EGFR(h) = EGFR(h) (Homo sapiens, UniProt P00533); experiment: biochemical; design: Eurofins recombinant human kinase profiling, remaining kinase activity as % of control, 10 uM ATP; conditions: ATP 10 uM; read-out: %Ctrl@10 μM
Sequence of EGFR(h) (P00533 whole entry): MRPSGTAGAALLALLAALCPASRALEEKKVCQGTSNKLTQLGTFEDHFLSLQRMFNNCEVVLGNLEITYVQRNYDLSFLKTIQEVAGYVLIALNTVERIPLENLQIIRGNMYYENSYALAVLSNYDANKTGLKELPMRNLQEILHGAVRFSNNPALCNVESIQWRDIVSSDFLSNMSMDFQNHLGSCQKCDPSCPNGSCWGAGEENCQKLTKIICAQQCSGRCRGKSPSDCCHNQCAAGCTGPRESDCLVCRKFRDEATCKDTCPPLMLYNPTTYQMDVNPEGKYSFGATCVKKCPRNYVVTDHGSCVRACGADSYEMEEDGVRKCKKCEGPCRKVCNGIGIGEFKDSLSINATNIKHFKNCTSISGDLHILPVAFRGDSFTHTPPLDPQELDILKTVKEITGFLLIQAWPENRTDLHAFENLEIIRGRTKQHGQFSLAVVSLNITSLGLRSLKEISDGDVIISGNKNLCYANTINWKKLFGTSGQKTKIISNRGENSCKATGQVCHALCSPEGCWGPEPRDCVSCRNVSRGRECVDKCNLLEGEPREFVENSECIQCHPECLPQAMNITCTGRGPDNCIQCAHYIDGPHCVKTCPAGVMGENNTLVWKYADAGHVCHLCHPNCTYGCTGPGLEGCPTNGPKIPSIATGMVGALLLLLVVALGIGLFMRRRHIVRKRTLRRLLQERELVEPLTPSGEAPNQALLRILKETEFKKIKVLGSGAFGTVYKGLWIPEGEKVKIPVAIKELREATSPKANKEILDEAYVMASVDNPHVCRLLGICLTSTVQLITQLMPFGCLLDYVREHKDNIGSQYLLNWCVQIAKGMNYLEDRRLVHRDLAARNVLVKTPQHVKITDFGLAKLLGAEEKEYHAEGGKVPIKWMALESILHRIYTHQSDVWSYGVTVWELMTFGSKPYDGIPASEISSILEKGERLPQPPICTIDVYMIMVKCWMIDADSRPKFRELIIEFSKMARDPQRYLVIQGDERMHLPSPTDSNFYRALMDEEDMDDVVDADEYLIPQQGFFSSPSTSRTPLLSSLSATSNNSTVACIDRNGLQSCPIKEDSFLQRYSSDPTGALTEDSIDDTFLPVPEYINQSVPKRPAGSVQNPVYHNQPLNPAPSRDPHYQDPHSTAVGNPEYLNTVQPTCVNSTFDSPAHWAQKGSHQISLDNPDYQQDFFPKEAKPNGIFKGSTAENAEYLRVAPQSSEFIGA
Procedure, shortened: as §1

CHK2(I157T)(h) = target: T7, CHK2(I157T)(h) (Homo sapiens, UniProt O96017, I157T); experiment: biochemical; design: Eurofins recombinant human kinase profiling, remaining kinase activity as % of control, 10 uM ATP; conditions: ATP 10 uM; read-out: %Ctrl@10 μM
T7 construct: gene CHEK2
Procedure, shortened: as §1

CDKL3(h) = CDKL3(h) (Homo sapiens, UniProt Q8IVW4); experiment: biochemical; design: Eurofins recombinant human kinase profiling, remaining kinase activity as % of control, 10 uM ATP; conditions: ATP 10 uM; read-out: %Ctrl@10 μM
Sequence of CDKL3(h) (Q8IVW4 whole entry): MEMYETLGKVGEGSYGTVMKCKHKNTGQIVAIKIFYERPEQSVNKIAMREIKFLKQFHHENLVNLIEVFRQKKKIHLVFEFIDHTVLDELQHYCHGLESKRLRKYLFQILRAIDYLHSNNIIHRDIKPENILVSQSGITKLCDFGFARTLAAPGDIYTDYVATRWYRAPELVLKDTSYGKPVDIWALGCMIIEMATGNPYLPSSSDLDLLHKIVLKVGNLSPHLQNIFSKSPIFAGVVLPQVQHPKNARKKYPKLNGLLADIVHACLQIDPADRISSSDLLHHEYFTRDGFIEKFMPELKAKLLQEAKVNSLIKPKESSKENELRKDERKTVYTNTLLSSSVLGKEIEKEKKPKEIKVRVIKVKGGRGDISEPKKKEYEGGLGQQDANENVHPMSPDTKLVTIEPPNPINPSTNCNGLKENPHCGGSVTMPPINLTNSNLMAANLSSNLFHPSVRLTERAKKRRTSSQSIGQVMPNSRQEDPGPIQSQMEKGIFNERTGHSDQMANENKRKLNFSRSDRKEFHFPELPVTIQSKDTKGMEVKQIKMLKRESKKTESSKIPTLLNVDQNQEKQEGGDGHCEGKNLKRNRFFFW
Procedure, shortened: as §1

IRAK4(h) = IRAK4(h) (Homo sapiens, UniProt Q9NWZ3); experiment: biochemical; design: Eurofins recombinant human kinase profiling, remaining kinase activity as % of control, 10 uM ATP; conditions: ATP 10 uM; read-out: %Ctrl@10 μM
Procedure, shortened: as §1

CK1γ2(h) = target: T8, CK1γ2(h) (Homo sapiens, UniProt P78368); experiment: biochemical; design: Eurofins recombinant human kinase profiling, remaining kinase activity as % of control, 10 uM ATP; conditions: ATP 10 uM; read-out: %Ctrl@10 μM
T8 construct: gene CSNK1G2
T8 sequence (P78368 whole entry): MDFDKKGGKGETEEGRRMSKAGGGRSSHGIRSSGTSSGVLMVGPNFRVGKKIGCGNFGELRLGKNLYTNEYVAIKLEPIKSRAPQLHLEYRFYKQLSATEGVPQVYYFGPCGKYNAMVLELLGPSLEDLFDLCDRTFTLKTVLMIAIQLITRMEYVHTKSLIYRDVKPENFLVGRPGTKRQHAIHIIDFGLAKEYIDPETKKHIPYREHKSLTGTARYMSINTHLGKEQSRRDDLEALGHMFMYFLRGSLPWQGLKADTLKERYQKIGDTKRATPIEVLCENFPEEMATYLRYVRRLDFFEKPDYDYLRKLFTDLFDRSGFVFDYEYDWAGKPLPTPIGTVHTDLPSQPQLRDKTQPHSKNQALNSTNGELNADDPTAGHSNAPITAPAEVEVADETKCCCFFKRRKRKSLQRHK
Procedure, shortened: as §1

Sequence of prohibitin 2 (PHB2) (Q99623 1-194): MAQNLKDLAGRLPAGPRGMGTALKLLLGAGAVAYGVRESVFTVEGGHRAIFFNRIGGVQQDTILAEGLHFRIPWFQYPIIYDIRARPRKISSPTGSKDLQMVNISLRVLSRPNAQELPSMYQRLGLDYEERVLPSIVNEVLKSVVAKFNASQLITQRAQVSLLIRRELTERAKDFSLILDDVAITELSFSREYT

Question: Which Kd (prohibitin 2 (PHB2)) does the source give for C1=C(c2nc(-c3cnn(C4CCNCC4)c3)cn3cc(-c4ccccc4)nc23)CCOC1 [YL-939] here?
Answer: The Kd was 3.43 µM.

Question: What about the remaining activity at 10 µM (IRE1(h)) of the same molecule?
Answer: The remaining activity at 10 µM was 94%.

Question: And the remaining activity at 10 µM (PDGFRα(V561D)(h))?
Answer: Its remaining activity at 10 µM is 101%.

Question: What about the remaining activity at 10 µM (PrKX(h)) of the same molecule?
Answer: The remaining activity at 10 µM was 80%.

Question: And the remaining activity at 10 µM (Abl(h))?
Answer: Its remaining activity at 10 µM is 102%.

Question: What about the remaining activity at 10 µM (PDGFRα(D842V)(h)) of the same molecule?
Answer: The remaining activity at 10 µM was 113%.

Question: And the remaining activity at 10 µM (IGF-1R(h), activated)?
Answer: Its remaining activity at 10 µM is 95%.

Question: What about the remaining activity at 10 µM (GRK6(h)) of the same molecule?
Answer: The remaining activity at 10 µM was 87%.

Question: And the remaining activity at 10 µM (ATM(h))?
Answer: The remaining activity at 10 µM was 86%.

Question: And the remaining activity at 10 µM (NEK4(h))?
Answer: The remaining activity at 10 µM was 118%.

Question: And the remaining activity at 10 µM (MARK1(h))?
Answer: The remaining activity at 10 µM was 95%.

Question: What about the remaining activity at 10 µM (WNK3(h)) of the same molecule?
Answer: Its remaining activity at 10 µM is 87%.

Question: And the remaining activity at 10 µM (CDK17/cyclinY(h))?
Answer: The remaining activity at 10 µM was 93%.

Question: What about the remaining activity at 10 µM (IRR(h)) of the same molecule?
Answer: The remaining activity at 10 µM was 74%.

Question: What about the remaining activity at 10 µM (EGFR(h)) of the same molecule?
Answer: The remaining activity at 10 µM was 87%.

Question: What about the remaining activity at 10 µM (CHK2(I157T)(h)) of the same molecule?
Answer: The remaining activity at 10 µM was 87%.

Question: And the remaining activity at 10 µM (CDKL3(h))?
Answer: The remaining activity at 10 µM was 82%.

Question: What about the remaining activity at 10 µM (IRAK4(h)) of the same molecule?
Answer: The remaining activity at 10 µM was 96%.

Question: And the remaining activity at 10 µM (CK1γ2(h))?
Answer: The remaining activity at 10 µM was 90%.
